In patent US12599582B2, “Pyrrole compounds” (ALIGOS THERAPEUTICS, INC., priority 2019, dated 2026):

These molecules were tested on HBV (assay: HBV-DNA Antiviral Assay Using HepG2.2.15 Cells (extracellular HBV DNA by qPCR)). Settings: Hepatitis B virus; HBV DNA inhibition, HepG2.2.15 cells, extracellular HBV DNA by qPCR; read-out: EC50.
Type: cell-based, hepatitis B virus (HBV)
Protocol: The following assay procedure describes the HBV antiviral assay. This assay uses HepG2.2.15 cells, which have been transfected with HBV genome, and extracellular HBV DNA quantification as endpoint. Cell viability is assessed in parallel by measuring the intracellular ATP content using the CellTiter-Glo® reagent from Promega.
On day 0, HepG2.2.15 cells were seeded in 96-well plates at a density of 6.0×10^4 cells/well (0.1 mL/well). The cells were incubated at 37° C. and 5% CO2.
On day 1, the test articles were diluted and added to cell culture wells (8 concentrations, 4-fold dilution, in duplicate). GLS4, Tenofovir and Sorafenib were used as reference compounds. 100 μL of culture medium containing the compounds was added to the plate, and the final total volume per well was 200 μL. The final concentration of DMSO in the culture medium was 0.5%. The plate map of compound treatment is shown below. The cells were cultured at 37° C. and 5% CO2 for 3 days.
On day 4, the plates were refreshed with culture media with compounds.
On day 7, cell viability was assessed using the CellTiter-Glo®, and the cell culture supernatants were collected for determination of HBV DNA by qPCR.
Extracellular DNA was isolated with QIAamp 96 DNA Blood Kit per the manufacturer's manual. HBV DNA was then quantified by qPCR with HBV specific primers and probes as specified in Table 1 using the FastStart Universal MasterMix from Roche on an ABI-7900HT. The PCR cycle program consisted of 95° C. for 10 min, followed by 40 cycles at 95° C. for 15 sec and 60° C. for 1 min.
A DNA standard was prepared by dilution of the pAAV2 HBV1.3 plasmid with concentrations ranging from 10 to 1×10^7 copies/uL and used to generate a standard curve by plotting Ct value vs. the concentration of the HBV plasmid DNA standard. The quantity of HBV DNA in each sample was determined by interpolating from the standard curve.
Cell viability was calculated as follows: % Cell viability=(luminescence value of test sample−average luminescence value of blank)/(average luminescence value of 0.5% DMSO control−average luminescence of blank)×100%. HBV DNA inhibition was calculated as follows: 100−(HBV DNA copy number of test sample−HBV DNA copy number of ETV)/HBV DNA copy number of 0.5% DMSO control−HBV DNA copy number of ETV)×100%. The CC50, EC50 and EC90 values were determined by dose-response curves fitted by GraphPad Prism using “log (agonist) vs. response—Variable slope”.

Q: C#C[C@@H](CO)NC(=O)C(=O)c1c(C)c(C(=O)Nc2ccc(F)c(C#N)c2)n(C)c1C (single isomer, unassigned) [Compound 31a] was tested. Which EC50 did it give?
A: The EC50 was 1 to 10 nM.

Q: For C#C[C@H](CO)NC(=O)C(=O)c1c(C)c(C(=O)Nc2ccc(F)c(C#N)c2)n(C)c1C (single isomer, unassigned) [Compound 31b], which EC50 is on record?
A: The EC50 was 1 to 10 nM.

Q: C#CCNC(=O)C(=O)c1c(C)c(C(=O)Nc2ccc(F)c(C(F)(F)F)c2)n(C)c1C [Compound 1, N-[4-fluoro-3-(trifluoromethyl)phenyl]-1,3,5-trimethyl-4-[2-oxo-2-(prop-2-ynylamino)acetyl]pyrrole-2-carboxamide] was tested. Which EC50 did it give?
A: The EC50 was 1 to 10 nM.

Q: With C=CCNC(=O)C(=O)c1c(C)c(C(=O)Nc2ccc(F)c(C(F)(F)F)c2)n(C)c1C [Compound 2, 4-[2-(allylamino)-2-oxo-acetyl]-N-[4-fluoro-3-(trifluoromethyl)phenyl]-1,3,5-trimethyl-pyrrole-2-carboxamide] as the molecule, how does the EC50 read?
A: Its EC50 is 1 to 10 nM.

Q: With C#CCNC(=O)C(=O)c1cc(C(=O)Nc2ccc(F)c(C#N)c2)n(C)c1 [Compound 3, N-(3-cyano-4-fluoro-phenyl)-1-methyl-4-[2-oxo-2-(prop-2-ynylamino)acetyl]pyrrole-2-carboxamide] as the molecule, how does the EC50 read?
A: Its EC50 is greater than 1000 nM.

Q: How did the EC50 turn out when C#CCNC(=O)C(=O)c1c(C)c(C(=O)Nc2ccnc(Br)c2F)n(C)c1C [Compound 4, N-(2-bromo-3-fluoro-4-pyridyl)-1,3,5-trimethyl-4-[2-oxo-2-(prop-2-ynylamino)acetyl]pyrrole-2-carboxamide] was run?
A: The EC50 was 1 to 10 nM.

Q: C=CCNC(=O)C(=O)c1c(C)c(C(=O)Nc2ccnc(Br)c2F)n(C)c1C [Compound 5, 4-[2-(allylamino)-2-oxo-acetyl]-N-(2-bromo-3-fluoro-4-pyridy1)-1,3,5-trimethyl-pyrrole-2-carboxamide] was tested. Which EC50 did it give?
A: The EC50 was 10 to 100 nM.

Q: Which EC50 does the source give for C#CCNC(=O)C(=O)c1cn(C)c(C(=O)Nc2ccc(F)c(C#N)c2)c1F [Compound 6, N-(3-cyano-4-fluoro-phenyl)-3-fluoro-1-methyl-4-[2-oxo-2-(prop-2-ynylamino)acetyl]pyrrole-2-carboxamide] here?
A: Its EC50 is 100 to 1000 nM.

Q: Which EC50 does the source give for C=CCNC(=O)C(=O)c1cn(C)c(C(=O)Nc2ccc(F)c(C#N)c2)c1F [Compound 7, 4-[2-(allylamino)-2-oxo-acetyl]-N-(3-cyano-4-fluoro-phenyl)-3-fluoro-1-methyl-pyrrole-2-carboxamide] here?
A: The EC50 was 100 to 1000 nM.

Q: With C#CCNC(=O)C(=O)c1cn(C)c(C(=O)Nc2ccc(F)c(C#N)c2)c1C [Compound 8, N-(3-cyano-4-fluoro-phenyl)-1,3-dimethyl-4-[2-oxo-2-(prop-2-ynylamino)acetyl]pyrrole-2-carboxamide] as the molecule, how does the EC50 read?
A: Its EC50 is 10 to 100 nM.

Q: Which EC50 does the source give for C#CCNC(=O)C(=O)c1c(C)c(C(=O)Nc2ccc(F)c(C#N)c2)n(C)c1Cl [Compound 9, 5-chloro-N-(3-cyano-4-fluoro-phenyl)-1,3-dimethyl-4-[2-oxo-2-(prop-2-ynylamino)acetyl]pyrrole-2-carboxamide] here?
A: The EC50 was 1 to 10 nM.

Q: For C#CCNC(=O)C(=O)c1cn(C)c(C(=O)Nc2ccc(F)c(C#N)c2)c1Cl [Compound 10, 3-chloro-N-(3-cyano-4-fluoro-phenyl)-1-methyl-4-[2-oxo-2-(prop-2-ynylamino)acetyl]pyrrole-2-carboxamide], which EC50 is on record?
A: The EC50 was 10 to 100 nM.

Q: How did the EC50 turn out when C#CC(C)(C)NC(=O)C(=O)c1c(C)c(C(=O)Nc2ccc(F)c(C#N)c2)n(C)c1C [Compound 11, N-(3-cyano-4-fluoro-phenyl)-4-[2-(1,1-dimethylprop-2-ynylamino)-2-oxo-acetyl]-1,3,5-trimethyl-pyrrole-2-carboxamide] was run?
A: Its EC50 is less than 1 nM.

Q: Which EC50 does the source give for C#CCNC(=O)C(=O)c1c(F)c(C(=O)Nc2ccc(F)c(C#N)c2)n(C)c1Cl [Compound 12, 5-chloro-N-(3-cyano-4-fluoro-phenyl)-3-fluoro-1-methyl-4-[2-oxo-2-(prop-2-ynylamino)acetyl]pyrrole-2-carboxamide] here?
A: Its EC50 is 100 to 1000 nM.

Q: With C#CCNC(=O)C(=O)c1c(F)c(C(=O)Nc2ccc(F)c(C#N)c2)n(C)c1C [Compound 13, N-(3-cyano-4-fluoro-phenyl)-3-fluoro-1,5-dimethyl-4-[2-oxo-2-(prop-2-ynylamino)acetyl]pyrrole-2-carboxamide] as the molecule, how does the EC50 read?
A: Its EC50 is 1 to 10 nM.

Q: For C#CC1(NC(=O)C(=O)c2c(C)c(C(=O)Nc3ccc(F)c(C#N)c3)n(C)c2C)CC1 [Compound 14, N-(3-cyano-4-fluoro-phenyl)-4-[2-[(1-ethynylcyclopropyl)amino]-2-oxo-acetyl]-1,3,5-trimethyl-pyrrole-2-carboxamide], which EC50 is on record?
A: Its EC50 is less than 1 nM.

Q: How did the EC50 turn out when C#CC1(NC(=O)C(=O)c2c(C)c(C(=O)Nc3ccc(F)c(C#N)c3)n(C)c2C)CCC1 [Compound 15, N-(3-cyano-4-fluoro-phenyl)-4-[2-[(1-ethynylcyclobutyl)amino]-2-oxo-acetyl]-1,3,5-trimethyl-pyrrole-2-carboxamide] was run?
A: Its EC50 is less than 1 nM.

Q: For C#CCNC(=O)C(=O)c1c(Cl)c(C(=O)Nc2ccc(F)c(C#N)c2)n(C)c1Br [Compound 16, 5-bromo-3-chloro-N-(3-cyano-4-fluoro-phenyl)-1-methyl-4-[2-oxo-2-(prop-2-ynylamino)acetyl]pyrrole-2-carboxamide], which EC50 is on record?
A: The EC50 was 10 to 100 nM.

Q: C#C[C@@H](C)NC(=O)C(=O)c1c(C)c(C(=O)Nc2ccc(F)c(C#N)c2)n(C)c1C [Compound 17a, N-(3-cyano-4-fluoro-phenyl)-1,3,5-trimethyl-4-[2-oxo-2-[[(1R)-1-methylprop-2-ynyl]amino]acetyl]pyrrole-2-carboxamide] was tested. Which EC50 did it give?
A: Its EC50 is 1 to 10 nM.

Q: With C#C[C@H](C)NC(=O)C(=O)c1c(C)c(C(=O)Nc2ccc(F)c(C#N)c2)n(C)c1C [Compound 17b, N-(3-cyano-4-fluoro-phenyl)-1,3,5-trimethyl-4-[2-oxo-2-[[(1S)-1-methylprop-2-ynyl]amino]acetyl]pyrrole-2-carboxamide] as the molecule, how does the EC50 read?
A: The EC50 was 1 to 10 nM.

Q: Which EC50 does the source give for C=CCNC(=O)C(=O)c1c(F)c(C(=O)Nc2ccc(F)c(C#N)c2)n(C)c1C [Compound 18, 4-[2-(allylamino)-2-oxo-acetyl]-N-(3-cyano-4-fluoro-phenyl)-3-fluoro-1,5-dimethyl-pyrrole-2-carboxamide] here?
A: The EC50 was 1 to 10 nM.

Q: How did the EC50 turn out when Cc1c(C(=O)C(=O)NC2(c3c[nH]nn3)CC(F)(F)C2)c(C)n(C)c1C(=O)Nc1ccc(F)c(C#N)c1 [Compound 19, N-(3-cyano-4-fluoro-phenyl)-4-[2-[[3,3-difluoro-1-(1H-triazol-4-yl)cyclobutyl]amino]-2 oxo-acetyl]-1,3,5-trimethyl-pyrrole-2-carboxamide] was run?
A: Its EC50 is less than 1 nM.

Q: How did the EC50 turn out when C#CCNC(=O)C(=O)c1c(F)c(C(=O)Nc2ccc(F)c(C#N)c2)n(C)c1Br [Compound 20, 5-bromo-N-(3-cyano-4-fluoro-phenyl)-3-fluoro-1-methyl-4-[2-oxo-2-(prop-2-ynylamino)acetyl]pyrrole-2-carboxamide] was run?
A: Its EC50 is 10 to 100 nM.

Q: How did the EC50 turn out when C#CCNC(=O)C(=O)c1c(Cl)c(C(=O)Nc2ccc(F)c(C#N)c2)n(C)c1C [Compound 21, 3-chloro-N-(3-cyano-4-fluoro-phenyl)-1,5-dimethyl-4-[2-oxo-2-(prop-2-ynylamino)acetyl]pyrrole-2-carboxamide] was run?
A: The EC50 was 1 to 10 nM.

Q: For Cc1c(C(=O)C(=O)NCC#CC2CC2)c(C)n(C)c1C(=O)Nc1ccc(F)c(C#N)c1 [Compound 22, N-(3-cyano-4-fluoro-phenyl)-4-[2-(3-cyclopropylprop-2-ynylamino)-2-oxo-acetyl]-1,3,5-trimethyl-pyrrole-2-carboxamide], which EC50 is on record?
A: Its EC50 is 1 to 10 nM.
